Reference: paper PMC9110766, “Structure-Based Design of 2-Aminopurine Derivatives as CDK2 Inhibitors for Triple-Negative Breast Cancer” (Frontiers in Pharmacology, 2022)
Counter-ions that a name gives are not always drawn.

Key:
CDK2/cyclin A = CDK2/cyclin A (Homo sapiens, UniProt P24941); test: CDK2 inhibition, Kinase-Glo Luminescent Kinase Assay; assay type: biochemical; details: for IC50: geometric means of n ⩾ 3 experiments, 10 µM ATP, read-out: IC50 against CDK2; for CDK2 inhibitory activity (in words): screened at 0.5 μM; for inhibition at 0.5 µM: read-out: inhibition rate (%) @0.5 μM against CDK2, compound at 0.5 μM
Experimental: The IC50 values were calculated using Prism GraphPad software.

Compound	IC50 (CDK2/cyclin A) [nM]	melting point	CDK2 inhibitory activity (in words) (CDK2/cyclin A)	inhibition at 0.5 µM (CDK2/cyclin A) [%]
Cc1ccc(Nc2nc(-c3cccc(CN)c3)c3nc[nH]c3n2)cc1.Cl [Compound 11i, 6-(3-(aminomethyl)phenyl)-N-(p-tolyl)-9H-purin-2-amine hydrochloride]	280 ± 20	> 300 °C	–	–
CN(C)S(=O)(=O)c1ccc(Nc2nc(-c3cccc(CN)c3)c3nc[nH]c3n2)cc1.Cl [Compound 11q, 4-((6-(3-(aminomethyl)phenyl)-9H-purin-2-yl)amino)-N,N-dimethylbenzene sulfonamide hydrochloride]	180 ± 20	> 300 °C	–	–
O=[N+]([O-])c1cccc(Nc2nc(-c3ccsc3)c3nc[nH]c3n2)c1 [Compound 5e, N-(3-nitrophenyl)-6-(thiophen-3-yl)-9H-purin-2-amine]	–	> 280 °C	inactive	–
Cl.NCc1cccc(-c2nc(Nc3ccccc3)nc3[nH]cnc23)c1 [Compound 11f, 6-(3-(aminomethyl)phenyl)-N-phenyl-9H-purin-2-amine hydrochloride]	–	203 to 205 °C	–	35
Cl.NCc1cccc(-c2nc(Nc3ccc(-c4ccccc4)cc3)nc3[nH]cnc23)c1 [Compound 11h, N-([1,1′-biphenyl]-4-yl)-6-(3-(aminomethyl)phenyl)-9H-purin-2-amine hydrochloride]	–	210 °C (dec.)	–	13
O=C(O)c1ccc(-c2nc(Nc3cccc([N+](=O)[O-])c3)nc3[nH]cnc23)cc1 [Compound 5j, 4-(2-((3-nitrophenyl)amino)-9H-purin-6-yl)benzoic acid]	–	> 300 °C	low activity	7
Cl.NCc1cccc(-c2nc(Nc3ccc(N4CCNCC4)cc3)nc3[nH]cnc23)c1 [Compound 11k, 6-(3-(aminomethyl)phenyl)-N-(4-(piperazin-1-yl)phenyl)-9H-purin-2-amine hydrochloride]	–	> 300 °C	–	26
Cl.NCc1ccc(-c2nc(Nc3cccc([N+](=O)[O-])c3)nc3[nH]cnc23)cc1 [Compound 11d, 6-(4-(aminomethyl)phenyl)-N-(3-nitrophenyl)-9H-purin-2-amine hydrochloride]	230 ± 10	> 300 °C	–	–
COC(=O)c1cccc(-c2nc(Nc3cccc([N+](=O)[O-])c3)nc3[nH]cnc23)c1 [Compound 5h, Methyl 3-(2-((3-nitrophenyl)amino)-9H-purin-6-yl)benzoate]	–	257 °C	abolished CDK2 inhibitory activity	11
O=[N+]([O-])c1cccc(Nc2nc(-c3ccc(F)cc3)c3nc[nH]c3n2)c1 [Compound 5i, 6-(4-fluorophenyl)-N-(3-nitrophenyl)-9H-purin-2-amine]	–	–	abolished CDK2 inhibitory activity	–
O=[N+]([O-])c1cccc(Nc2nc(-c3cccc4ccccc34)c3nc[nH]c3n2)c1 [Compound 5b, 6-(naphthalen-1-yl)-N-(3-nitrophenyl)-9H-purin-2-amine]	–	> 300 °C	weak activity	3
6-(3-(aminomethyl)phenyl)-N-(4-(piperazin-1-yl)phenyl)-9H-purin-2-amine dihydrochloride [Compound 11r]	190 ± 10	–	–	–
Cl.NCCc1cccc(-c2nc(Nc3cccc([N+](=O)[O-])c3)nc3[nH]cnc23)c1 [Compound 11e, 6-(3-(2-aminoethyl)phenyl)-N-(3-nitrophenyl)-9H-purin-2-amine hydrochloride]	–	> 230 °C	–	35
O=C(O)c1cccc(-c2nc(Nc3cccc([N+](=O)[O-])c3)nc3[nH]cnc23)c1 [Compound 5g, 3-(2-((3-nitrophenyl)amino)-9H-purin-6-yl)benzoic acid]	150 ± 10	–	–	–
Cl.NCc1cccc(-c2nc(Nc3ccc(F)cc3)nc3[nH]cnc23)c1 [Compound 11n, 6-(3-(aminomethyl)phenyl)-N-(4-fluorophenyl)-9H-purin-2-amine hydrochloride]	320 ± 60	> 300 °C	–	–
Cl.Cl.NCc1cccc(-c2nc(Nc3cccc(N)c3)nc3[nH]cnc23)c1 [Compound 11m, N ^ 1-(6-(3-(aminomethyl)phenyl)-9H-purin-2-yl)benzene-1,3-diamine dihydrochloride]	–	> 300 °C	–	33
COC(=O)c1ccc(-c2nc(Nc3cccc([N+](=O)[O-])c3)nc3[nH]cnc23)cc1 [Compound 5k, Methyl 4-(2-((3-nitrophenyl)amino)-9H-purin-6-yl)benzoate]	–	212 to 214 °C	abolished CDK2 inhibitory activity	3
O=[N+]([O-])c1cccc(Nc2nc(-c3ccc4c(c3)OCO4)c3nc[nH]c3n2)c1 [Compound 5d, 6-(benzo[d][1,3]dioxol-5-yl)-N-(3-nitrophenyl)-9H-purin-2-amine]	–	260 °C (dec.)	weak activity	7
Cl.O=[N+]([O-])c1cccc(Nc2nc(-c3ccc[nH]3)c3nc[nH]c3n2)c1 [Compound 5c, N-(3-nitrophenyl)-6-(1H-pyrrol-2-yl)-9H-purin-2-amine hydrochloride]	–	236 °C (dec.)	–	37
O=[N+]([O-])c1cccc(Nc2nc(-c3ccccc3)c3nc[nH]c3n2)c1 [Compound 5a, N-(3-nitrophenyl)-6-phenyl-9H-purin-2-amine]	310 ± 10	–	–	–
Cl.Nc1ccc(-c2nc(Nc3cccc([N+](=O)[O-])c3)nc3[nH]cnc23)cc1 [Compound 11b, 6-(4-aminophenyl)-N-(3-nitrophenyl)-9H-purin-2-amine hydrochloride]	–	> 300 °C	–	40
NCc1ccc(-c2nc(Nc3ccc(F)cc3)nc3[nH]cnc23)cc1 [Compound 11o, 6-(4-(aminomethyl)phenyl)-N-(4-fluorophenyl)-9H-purin-2-amine hydrochloride]	240 ± 10	–	–	–
Cl.NCc1ccc(-c2nc(Nc3ccccc3)nc3[nH]cnc23)cc1 [Compound 11g, 6-(4-(aminomethyl)phenyl)-N-phenyl-9H-purin-2-amine hydrochloride]	130 ± 20	200 to 202 °C	–	–
O=[N+]([O-])c1cccc(Nc2nc(-c3cccc([N+](=O)[O-])c3)c3nc[nH]c3n2)c1 [Compound 5f, N,6-bis(3-nitrophenyl)-9H-purin-2-amine]	–	> 300 °C	abolished CDK2 inhibitory activity	–
CC(C)(C)c1ccc(Nc2nc(-c3cccc(CN)c3)c3nc[nH]c3n2)cc1 [Compound 11j, 6-(3-(aminomethyl)phenyl)-N-(4-(tert-butyl)phenyl)-9H-purin-2-amine hydrochloride]	–	–	–	28
